From patent publication US20110059070A1, “Combination therapy for tumoral desease treatment” (Ramot At Tel Aviv University Ltd., priority 2006, published 2011)
Where two headings read alike, the source gives them in different places.

Legend:
mortalin binding to C9 = target: T1, mortalin binding to C9 (Homo sapiens, UniProt P38646); assay: Binding of mortalin to complement C9 (ELISA); conditions: K562 cell lysate with or without 50 μM MKT-077 on C9-coated wells; P<0.005
T1 construct: incubated with K562 lysates (source for mortalin), with or without MKT-077; endogenous in cells; host or cells: K562 cell lysate
T1 sequence (P38646 47-679): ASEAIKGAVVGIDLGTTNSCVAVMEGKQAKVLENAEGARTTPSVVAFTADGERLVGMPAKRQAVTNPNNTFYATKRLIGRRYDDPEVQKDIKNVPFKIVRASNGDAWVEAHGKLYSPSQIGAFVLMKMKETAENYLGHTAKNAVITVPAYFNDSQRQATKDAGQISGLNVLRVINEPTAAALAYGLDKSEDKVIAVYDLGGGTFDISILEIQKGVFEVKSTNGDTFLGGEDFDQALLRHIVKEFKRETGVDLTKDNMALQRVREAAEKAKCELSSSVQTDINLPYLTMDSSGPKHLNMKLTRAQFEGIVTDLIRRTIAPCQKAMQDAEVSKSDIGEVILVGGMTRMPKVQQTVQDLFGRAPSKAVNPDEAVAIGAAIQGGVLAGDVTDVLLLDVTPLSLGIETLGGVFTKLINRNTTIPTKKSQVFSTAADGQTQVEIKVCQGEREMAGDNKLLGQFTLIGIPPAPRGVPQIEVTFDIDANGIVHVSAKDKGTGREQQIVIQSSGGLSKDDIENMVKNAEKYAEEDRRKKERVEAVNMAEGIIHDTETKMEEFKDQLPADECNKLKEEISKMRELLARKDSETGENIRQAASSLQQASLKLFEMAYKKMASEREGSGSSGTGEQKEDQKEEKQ
Method: FIG. 5 is a histogram depicting the interference of MKT-077 with binding of mortalin to C9. Microtiter plate wells were coated overnight with C9 or BSA (0.5 μg per well) and then incubated with K562 cell lysate (40×10^6 cells ml^−1 lysis buffer) diluted 1:25 with or without 50 μM MKT-077. The wells were washed and treated with anti-mortalin antibody and peroxidase-labeled second antibody, developed with o-phenilenediamine (OPD) and analyzed in an ELISA reader. Results present the quantity of mortalin in each experimental group and are representative of three independent experiments. *,P<0.005 between groups with and without MKT-077.
Binding of mortalin to complement C9—Binding of mortalin to the complement C9 protein was examined by ELISA analysis. In brief, purified human C9 and BSA (0.5 μg per well each) were bound overnight at 4° C. to a 96-well Enzyme Immunoassay (EIA) plate (Corning, N.Y., USA). Diluted cell lysate prepared from 40×10^6 K562 cells as described above was added to each well for 60 minutes at 37° C. After washes, monoclonal mouse anti-mortalin antibody (diluted 1:500) was added for 30 minutes at 37° C. and then peroxidase-conjugated goat anti-mouse IgG was added for 30 minutes at room temperature. Next, o-phenylenediamine (Sigma) was added and the plate was examined in a Spectrafluor Plus plate reader (Tecan, Austria) at 450 nm. […]

K562 cells [1] = assay: A23187-mediated lysis of K562 cells; assay type: cell-based, human; conditions: K562 treated 1 hour at 37° C. with increased concentrations of A23187 and 50 μM MKT-077
Method: (§1) FIG. 4a—K562 cells were pretreated for 1 hour at 37° C. with 50 μM MKT-077 and then treated with 900 and 1200 units ml^−1 SLO or with DTT as control. After 15 minutes at 37° C., cell lysis was measured by Trypan blue inclusion. Results are representative of three independent experiments. FIG. 4b—K562 cells were treated for 1 hour at 37° C. with increased concentrations of A23187 and with 50 μM MKT-077. Cell lysis was then measured by Trypan blue inclusion. Results present the percentage of cell lysis and are representative of three independent experiments.
(§2) MKT-077 has no effect on SLO-mediated lysis and A23187-mediated lysis—The present inventors have further addressed the question of specificity of the effect of MKT-077 on cell death. The effect of MKT-077 on cell death induced by Streptolysin O (SLO), another cytolytic pore-forming protein, was examined. Cells were pretreated with MKT-077 and then treated with several doses of SLO or with dithiothreitol (DTT) as control. Lysis was measured after 15 minutes incubation at 37° C. Results presented in FIG. 4a show no effect of MKT-077 on SLO-mediated lysis. The present inventors have further examined the effect of MKT-077 on cell death induced by the Ca^+2 ionophore A23187. […] Next, the cells were washed and percent cell death was measured.

human tumor cells = human tumor cells tested; cited from earlier work
K562 cells [2] = assay: Complement-mediated lysis of K562 cells (Trypan blue inclusion); assay type: cell-based, human; conditions: for effect on complement-mediated lysis (percent cell lysis): K562 cells pretreated 60 minutes at 37° C. at different concentrations, then anti-K562 antibodies and NHS, Trypan Blue
Method: FIG. 1 is a histogram depicting the sensitization of cells to complement mediated lysis by MKT-077. K562 cells were pretreated for 1 hour at 37° C. with increasing concentrations of MKT-077 [or double distilled water (DDW); NT] and then treated with a sublytic dose of anti-K562 antibody (1:14) and complement [Normal human serum (NHS)] or heat-inactivated NHS (HI-NHS). After incubation for 1 hour at 37° C., percent cell lysis was measured with 0.2% Trypan Blue. Results present the percentage of cell lysis and are representative of four independent experiments. P<0.01 between NT group and the other groups.
K562 cells were treated for 60 minute at 37° C. with different concentrations of MKT-077 or Rhodamine123 (Rho123), followed by treatment for another 60 minutes with anti-K562 antibodies and NHS or HI-NHS and the cell lysis was measured by Trypan blue inclusion. Results are representative of three independent experiments. *P<0.05, between cells treated with NHS and MKT-077 and cells treated with NHS without MKT-077.
(§3) Cell lysis and collection of secreted vesicles—Cytotoxicity assay was performed as described before [Reiter, Y. and Z. Fishelson, Complement membrane attack complexes induce in human leukemic cells rapid expression of large proteins (L-CIP). Mol Immunol, 1992. 29(6): p. 771-81]. […] Cell lysis was determined by Trypan blue inclusion. Statistical significance was analyzed by using the two-sided unpaired Student's t-test. […]
MKT-077 sensitizes cells to complement-mediated lysis—Human K562 erythroleukemia cells were pretreated for 60 minutes at 37° C. with MKT-077, at different concentrations, and then the cells were treated for additional 60 minutes at 37° C. with anti-K562 antibodies for 30 minutes on ice and with complement (NHS) or heat-inactivated NHS (HI-NHS) as control. Finally, cells were washed and percent cell lysis was quantified by Trypan Blue inclusion. […]

[3] = cited from earlier work
[4] = cited from earlier work; remark: listed apart in the source
K562 cells [5] = assay: SLO-mediated lysis of K562 cells; assay type: cell-based, human; conditions: K562 pretreated 1 hour with 50 μM, then 900 and 1200 units ml^−1 SLO, 15 minutes at 37° C.
Method: as §1, §2

[6] = system: HCT116 colon carcinoma cell line (HCT) p53 +/+ and HCT p53 −/− cells; assay: Complement-mediated lysis of HCT p53 +/+ and HCT p53 −/− cells; assay type: cell-based; conditions: HCT p53 +/+ versus HCT p53 −/− cells
Method: FIG. 3 is a histogram depicting that the effect of MKT-077 on complement-mediated lysis is p53-independent. HCT116 colon carcinoma cell line (HCT) p53 +/+ and HCT p53 −/− cells were pretreated for 1 hour at 37° C. with 50 μM MKT-077 and then treated with a lytic dose of anti-K562 antibody (1:9) and NHS or HI-NHS. After incubation for 1 hour at 37° C., percent cell lysis was measured by Trypan blue inclusion. Results present the percentage of cell lysis and are representative of three independent experiments.
Cell lysis and collection of secreted vesicles—Cytotoxicity assay was performed as described before [Reiter, Y. and Z. Fishelson, Complement membrane attack complexes induce in human leukemic cells rapid expression of large proteins (L-CIP). Mol Immunol, 1992. 29(6): p. 771-81]. Briefly, for a cell lysis assay, cells were incubated with diluted anti-K562 antiserum for 30 minutes at 4° C. and then with complement [NHS or heat-inactivated normal human serum (HI-NHS), 50%] for 60 minutes at 37° C. Cell lysis was determined by Trypan blue inclusion. Statistical significance was analyzed by using the two-sided unpaired Student's t-test. […]
The effect of MKT-077 on complement-mediated lysis is p53-independent—MKT-077 is known to prevent the binding of mortalin to p53 (Wadhwa et al. Cancer Res. 15: 6818-6821, 2000). […] After 60 minutes at 37° C., percent lysis was measured.

K562 cells [7] = assay: Release of mortalin and C9 by vesiculation after complement attack (Western blot); assay type: cell-based, human; conditions: K562 cells pretreated 1 hour with 200 μM or 50 μM, sublytic anti-K562 antibodies and NHS
Method: K562 cells pretreated with 50 μM MKT-077 (or with double distilled water) were treated for 10 minutes at 37° C. with a sublytic dose of anti-K562 antibody and NHS or HI-NHS. Then, the cells were washed 4 times with Hank's Balanced Salt Solution (HBSS; Sigma, Rehovot, Israel), incubated for 10 minutes at 37° C. and supernatant were collected. Released proteins were first sedimented at 5,000 g for 15 minutes and then centrifuged at 100,000 g for 30 minutes for vesicles isolation. High-speed supernatant and pellets were analyzed by SDS-PAGE and Western Blotting with anti-mortalin (FIG. 2a) or anti-C9 (FIG. 2b) antibodies. Results are representative of three independent experiments.
as §3
Protein analysis—Protein concentration was analyzed with the BCA Protein Assay Kit (Pierce, Rockford, Ill., USA). […]

[8] = bolus dose (30 minutes i.v. infusion) 126 mg/m^2/week X 4 weeks every 6 weeks

In the case of `CCn1c(=Cc2cccc[n+]2CC)sc(=C2Sc3ccccc3N2C)c1=O.[Cl-]` [MKT-077], the “ability of mortalin to bind C9” value (mortalin binding to C9) is listed as “significant decrease”, the “effect on A23187-mediated lysis” value (K562 cells [1]) is listed as “no effect” and the “IC50 concentrations required in vitro” value (human tumor cells) is listed as 0.15-0.5 microgram/ml. The “effect on complement-mediated lysis (percent cell lysis)” value (K562 cells [2]) was “significantly enhances killing”, the “mortalin dependence of the effect on complement-mediated lysis” value (K562 cells [2]; data not shown) was “mortalin-dependent” and the associated toxicity [3, 8] was “hypomagnesemia (kidney toxicity)”. For the same compound, the plasma concentrations [3, 8] was 1.2-6.3 microgram/ml, the tolerability [3, 8] was “well tolerated” and the toxicity ([3]; single bolus weekly infusion (42 mg/m^2) for 4 weeks every 6 weeks) was “manageable hypomagnesemia”. The toxicity ([4]; cancer patients, continuous i.v. infusion 150 mg/m^2/five days (30 mg/m^2, day, for 5 days)) was “renal toxicity”, the toxicity ([4]; five-day infusion (30-50 mg/m^2/day) once every three weeks, chemo-resistant solid tumors) was “renal toxicity” and the “effect on SLO-mediated lysis” value (K562 cells [5]) was “no effect”. The “p53 dependence of the complement sensitization effect” value [6] was “presence or absence of p53 had no effect”, the “release of C9 by vesiculation” value (K562 cells [7]; Western blot anti-C9) was “inhibited” and the “release of mortalin by vesiculation” value (K562 cells [7]; Western blot anti-mortalin) was “inhibited”.

With Rhodamine123 the “effect on complement-mediated lysis (percent cell lysis)” value (K562 cells [2]) was “no effect”.
